test system: VSV-g pseudotyped HIV vector that expresses luciferase (PHIV); assay: microbe, parasite or virus in culture; assay type: cell-based; settings: Human immunodeficiency virus 1, HEK-293T, 48 h, read-out: PHIV IC50

Question: For `CC(C)CCN1CC[C@H](C)N2C(=O)c3c(O)c(=O)c(C(=O)NCc4ccc(F)cc4F)cn3C[C@@H]12` [Example Z-45, (4S,12aS)—N-[(2,4-Difluorophenyl)methyl]-7-hydroxy-4-methyl-1-(3-methylbutyl)-6,8-dioxo-1,2,3,4,6,8,12,12a-octahydropyrido[1′,2′:4,5]pyrazino[1,2-a]pyrimidine-9-carboxamide], which IC50 is on record?
Answer: < 10 nM

Question: Which IC50 does the source give for `C[C@H]1CCN(Cc2cccnc2)[C@@H]2Cn3cc(C(=O)NCc4ccc(F)cc4F)c(=O)c(O)c3C(=O)N12` [Example Z-46, (4S,12aS)—N-[(2,4-Difluorophenyl)methyl]-7-hydroxy-4-methyl-6,8-dioxo-1-(3-pyridinylmethyl)-1,2,3,4,6,8,12,12a-octahydropyrido[1′,2′:4,5]pyrazino[1,2-a]-pyrimidine-9-carboxamide] here?
Answer: < 10 nM

Question: With `C[C@H]1CCN(C2CC2)[C@@H]2Cn3cc(C(=O)NCc4ccc(F)cc4F)c(=O)c(O)c3C(=O)N12` [Example Z-47, (4S,12aS)-1-Cyclopropyl-N-[(2,4-difluorophenyl)methyl]-7-hydroxy-4-methyl-6,8-dioxo-1,2,3,4,6,8,12,12a-octahydropyrido[1′,2′:4,5]pyrazino[1,2-a]pyrimidine-9-carboxamide] as the molecule, how does the IC50 read?
Answer: < 10 nM

Question: `COCCN1CC[C@H](C)N2C(=O)c3c(O)c(=O)c(C(=O)NCc4ccc(F)cc4F)cn3C[C@@H]12` [Example Z-48, (4S,12aS)—N-[(2,4-Difluorophenyl)methyl]-7-hydroxy-4-methyl-1-[2-(methyloxy)ethyl]-6,8-dioxo-1,2,3,4,6,8,12,12a-octahydropyrido[1′,2′:4,5]pyrazino[1,2-a]pyrimidine-9-carboxamide] was tested. Which IC50 did it give?
Answer: < 10 nM

Question: How did the IC50 turn out when `CC[C@@H]1CO[C@H]2Cn3cc(C(=O)NCc4ccc(F)cc4F)c(=O)c(O)c3C(=O)N12` [Example Z-50, (3R,11aS)—N-[(2,4-Difluorophenyl)methyl]-3-ethyl-6-hydroxy-5,7-dioxo-2,3,5,7,11,11a-hexahydro[1,3]oxazolo[3,2-a]pyrido[1,2-d]pyrazine-8-carboxamide] was run?
Answer: < 10 nM

Question: With `C[C@H]1CCN(C2CCC2)[C@@H]2Cn3cc(C(=O)NCc4ccc(F)cc4F)c(=O)c(O)c3C(=O)N12` [Example Z-59, (4S,12aS)-1-Cyclobutyl-N-[(2,4-difluorophenyl)methyl]-7-hydroxy-4-methyl-6,8-dioxo-1,2,3,4,6,8,12,12a-octahydropyrido[1′,2′:4,5]pyrazino[1,2-a]pyrimidine-9-carboxamide] as the molecule, how does the IC50 read?
Answer: < 10 nM

Question: With `C[C@H]1CCN(C2CCSCC2)[C@@H]2Cn3cc(C(=O)NCc4ccc(F)cc4F)c(=O)c(O)c3C(=O)N12` [Example Z-60, (4S,12aS)—N-[(2,4-Difluorophenyl)methyl]-7-hydroxy-4-methyl-6,8-dioxo-1-(tetrahydro-2H-thiopyran-4-yl)-1,2,3,4,6,8,12,12a-octahydropyrido[1′,2′:4,5]pyrazino[1,2-a]pyrimidine-9-carboxamide] as the molecule, how does the IC50 read?
Answer: < 10 nM

target: HIV integrase (Human immunodeficiency virus type 1 group M subtype B (isolate HXB2) (HIV-1), UniProt P04585); assay: HIV integrase inhibitory activity assay (immunoplate strand transfer, OD405); assay type: biochemical; settings: not given
Experimental: The HIV integrase inhibitory activity was investigated based on the following assay method.
(1) Preparation of DNA Solution
By the same method as that described in Experimental Example 1 of WO 2004/024693, a substrate DNA solution (2 pmol/μl) and a target DNA solution (5 pmol/μl) were prepared. […] Each sequence of a substrate DNA and a target DNA is as described in the same Experimental Example.
(2) Measurement of Inhibition Rate (IC50 Value)
Streptavidin (manufactured by Vector Laboratories) was dissolved in a 0.1M carbonate buffer solution (composition: […] Na2CO3, 10 mM NaHCO3) to a concentration of 40 μg/ml, Each 50 μl of this solution was added to a well of an immunoplate (manufactured by NUNC), this is allowed to stand at 4° C. overnight to adsorb. Then, each well was washed with a phosphate buffer (composition: 13.7 mM NaCl, 0.27 mM KCl, 0.43 mM Na2HPO4, 0.14 mM KH2PO4) two times, and 300 μl of a phosphate buffer containing 1% skim milk to block it for 30 minutes. Further, each well was washed with a phosphate buffer two times, 50 μl of a substrate DNA solution (2 pmol/μl) was added to adsorb at room temperature for 30 minutes while shaking, and this was washed with a phosphate buffer two times and, then, distilled water once.
Then, to each well prepared as described above were added 12 μl of a buffer (composition: 150 mM MOPS (pH7.2), 75 mM MnCl2, 50 mM 2-mercaptoethanol, 25% glycerol, 500 μg/ml bovine serum albumin-fraction V), and 51 μl of a reaction solution prepared from 39 μl of distilled water. Then, 9 μl of an integrase solution (30 pmol) was added, and the mixture was mixed well. To a well as a negative control (NC) was added 9 μl of a diluting solution (composition: 20 mM MOPS (pH7.2), 400 mM potassium glutamate, 1 mM EDTA, 0.1% NP-40, 20% glycerol, 1 mM DTT, 4 M urea), and this was mixed well using a plate mixer. […]
C abs.: absorbance of well of compound
NC abs.: absorbance of NC
PC abs.: absorbance of PC

Question: For `O=C(NCc1ccc(F)cc1)c1cn2c(c(O)c1=O)C(=O)N1CCOC1C2` (stereo not shown) [Example C-2, 5-Hydroxy-4,6-dioxo-2,3,4,6,9,9a-hexahydro-1-oxa-8a,8a-diaza-cyclopenta[b]naphthalene-7 carboxylic acid 4-fluorobenzylamide], which “Integrase inhibitory activity (IC50, ng/ml)” value is on record?
Answer: 3.3 ng/mL

same assay, conditions: read-out: Integrase inhibitory activity (IC50, ng/ml) (converted)

Question: `CC(C)CN1CCCN2C(=O)c3c(O)c(=O)c(C(=O)NCc4ccc(F)cc4)cn3CC12` (stereo not shown) [Example F-2, 5-Hydroxy-1-isobutyl-6,10-dioxo-1,2,3,4,6,9,9a,10-octahydro-1,4a,8a-triazaanthracene-7-carboxylic acid 4-fluorobenzylamide] was tested. Which IC50 did it give?
Answer: 8.59 nM

Question: `CC(=O)N1CCCN2C(=O)c3c(O)c(=O)c(C(=O)NCc4ccc(F)cc4)cn3CC12` (stereo not shown) [Example H-2, 1-Acetyl-5-hydroxy-6,10-dioxo-1,2,3,4,6,9,9a,10-octahydro-1,4a,8a-triaza-anthracene-7-carboxylic acid 4-fluoro-benzylamide] was tested. Which IC50 did it give?
Answer: 7.47 nM

Reference: US11267823B2, “Substituted 1,2,3,3a,4,5,7,9,13,13a-decahydropyrido[1′,2′:4,5]pyrazino[1,2-a]pyrrolo[1,2-c]pyrimidines having HIV integrase inhibitory activity” (Shionogi & Co., Ltd., priority 2005, dated 2022)
